Assay results: patent US20250296909A1, “NOVEL BENZENE DERIVATIVE AND IMMUNOSUPPRESSION-RELATED USE THEREOF” (PROVIBIO CO., LTD., priority 2021, published 2025)

Columns and labels:
spleen T cells = assay: T cell proliferation inhibition (CFSE, FACS), CD3/CD28-activated spleen T cells; type: cell-based, C57BL/6 mice
Procedure, shortened: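 CFSE-labelled splenic T cells (CD90.2-isolated, 7-week C57BL/6 mice), 2×10^5/well, activated with anti-CD3/CD28 (0.5 μg/mL each) plus compound at 10, 30 or 50 μM in triplicate for 3 days at 37 °C. CFSE dilution by flow cytometry; inhibition % relative to CD3/CD28+DMSO proliferation.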

[1] = test system: T lymphocyte cell line Jurkat E6-1; assay: Cytotoxicity experiment (CCK-8, relative cell survival); type: cell-based; conditions: 24 hours, untreated cells = 100%
Procedure, shortened: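 Jurkat cells in RPMI-1640 with 10% FBS were exposed to compounds at several concentrations for 24 h at 37 °C, 5% CO2. CCK-8 added for 2 h, absorbance read at 450 nm; survival expressed relative to untreated cells (100%).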

SMILES: CCCCCCCCCCCCNC(=O)c1cccnc1N [Compound 69]
- inhibition at 10 µM (spleen T cells; Mus musculus, T-cell, 72 h, Table 2, 10 μM, 3 days, relative to CD3/CD28+DMSO, read-out: Proliferation inhibition rate (%)): 99%
- inhibition at 30 µM (spleen T cells; Mus musculus, T-cell, 72 h, Table 2, 30 μM, 3 days, relative to CD3/CD28+DMSO, read-out: Proliferation inhibition rate (%)): 100%
- inhibition at 50 µM (spleen T cells; Mus musculus, T-cell, 72 h, Table 2, 50 μM, 3 days, relative to CD3/CD28+DMSO, read-out: Proliferation inhibition rate (%)): 100%
- cell proliferation read by FACS (FIG. 2) (spleen T cells; concentrations ranging from 10 to 30 μM): inhibition of cell proliferation
- Relative cell survival rate (%) ([1]; 10 μM): 95%
- Relative cell survival rate (%) ([1]; 20 μM): 94%
- Relative cell survival rate (%) ([1]; 30 μM): 88%
- Relative cell survival rate (%) ([1]; 50 μM): 84%
